# Where “and” joins values, the source holds several entries; their conditions need not be identical. Equal values may be shown once. Calls of active or inactive are those of the source. The calls are words filed in the database; no cut-off is given here.
# Key:
# Enterococcus faecalis [1] = test: Antibacterial activity against Enterococcus faecalis ATCC 29212 assessed as reduction in bacterial growth incubated for 18 to 20 hrs by broth microdilution assay; format: functional; conditions: time 18-20 hrs
# Staphylococcus aureus [2] = test: Antibacterial activity against Staphylococcus aureus ATCC 43300 assessed as reduction in bacterial growth incubated for 18 to 20 hrs by broth microdilution assay; format: functional; conditions: time 18-20 hrs
# Enterococcus faecium = test: Antibacterial activity against vancomycin-resistant Enterococcus faecium ATCC 700221 assessed as reduction in bacterial growth incubated for 18 to 20 hrs by broth microdilution assay; format: functional; conditions: time 18-20 hrs
# [3] = test system: Staphylococcus epidermidis; test: Antibacterial activity against Staphylococcus epidermidis RP62A assessed as reduction in bacterial growth incubated for 18 to 20 hrs by broth microdilution assay; format: functional; conditions: time 18-20 hrs
# Staphylococcus aureus [4] = test: Drug resistance, ratio of MIC for methicillin-resistant Staphylococcus aureus after 20 days exposure to MIC for methicillin-resistant Staphylococcus aureus during first exposure; format: functional; conditions: time 20 day
# Staphylococcus aureus [5] = test: Drug resistance, ratio of MIC for Staphylococcus aureus ATCC 25923 after 20 days exposure to MIC for Staphylococcus aureus ATCC 25923 during first exposure; format: functional; conditions: time 20 day
# [6] = test system: Staphylococcus epidermidis; test: Antibacterial activity against […] Staphylococcus epidermidis RP62A assessed as reduction in bacterial growth incubated for 18 to 20 hrs by broth microdilution assay; format: functional; conditions: time 18-20 hrs
# Enterococcus faecalis [7] = test: Antibacterial activity against vancomycin-resistant Enterococcus faecalis ATCC 51575 assessed as reduction in bacterial growth incubated for 18 to 20 hrs by broth microdilution assay; format: functional; conditions: time 18-20 hrs
# Staphylococcus aureus [8] = test: Antibiofilm activity against Staphylococcus aureus ATCC 25923 assessed as inhibition of biofilm viability at 100 uM incubated for 18 to 20 hrs by resazurin staining based assay; format: functional; conditions: time 18-20 hrs
# Staphylococcus aureus [9] = test: Antimicrobial activity against methicillin-resistant Staphylococcus aureus ATCC 43300 infected in Caenorhabditis elegans AU37 assessed as reduction in bacterial burden at 20 uM incubated for 18 hrs; format: functional; design: scale not given: the % may be the effect or the level left
# Staphylococcus aureus [10] = test: Antibacterial activity against Staphylococcus aureus ATCC 25923 assessed as reduction in bacterial growth incubated for 18 to 20 hrs by broth microdilution assay; format: functional; conditions: time 18-20 hrs
# Staphylococcus aureus [11] = test: Antibiofilm activity against Staphylococcus aureus ATCC 25923 assessed as inhibition of biofilm biomass at 100 uM incubated for 18 to 20 hrs by crystal violet staining based assay; format: functional; conditions: time 18-20 hrs
# Staphylococcus aureus [12] = test: Antibacterial activity against […] Staphylococcus aureus ATCC 43300 assessed as reduction in bacterial growth incubated for 18 to 20 hrs by broth microdilution assay; format: functional; conditions: time 18-20 hrs
# Cell membrane [13] = test: Induction of cell membrane permeability in Staphylococcus aureus ATCC 25923 assessed as increase in fluorescence intensity at 4 times MIC incubated for 30 mins by PI staining based analysis; format: cell membranes
# Staphylococcus aureus [14] = test: Antimicrobial activity against Staphylococcus aureus ATCC 25923 infected in Caenorhabditis elegans AU37 assessed as reduction in bacterial burden at 20 uM incubated for 18 hrs; format: functional; design: scale not given: the % may be the effect or the level left
# Pseudomonas aeruginosa = test: Antibacterial activity against Pseudomonas aeruginosa ATCC 15442 assessed as reduction in bacterial growth incubated for 18 to 20 hrs by broth microdilution assay; format: functional; conditions: time 18-20 hrs
# THP-1 = test: Cytotoxicity against human THP-1 cells assessed as reduction in cell viability at 50 uM incubated for 24 hrs by resazurin staining based analysis relative to control; format: toxicity; conditions: thp-1, 24 h
# [15] = Hemolytic activity in mouse RBC assessed as hemolysis at 250 uM incubated for 1 hr; format: toxicity, cell-based, Erythrocyte; conditions: mouse red blood cells (erythrocytes), read-out: Activity
# [16] = Hemolytic activity in mouse RBC assessed as hemolysis at 125 uM incubated for 1 hr; format: toxicity, cell-based, Erythrocyte; conditions: mouse red blood cells (erythrocytes), read-out: Activity
# [17] = Toxicity in Caenorhabditis elegans AU37 assessed as worms survival at 10 uM measured after 72 hrs
# Acinetobacter baumannii = test: Antibacterial activity against Acinetobacter baumannii NCTC 13423 assessed as reduction in bacterial growth incubated for 18 to 20 hrs by broth microdilution assay; format: functional; conditions: time 18-20 hrs
# Cell membrane [18] = test: Induction of cytoplasmic membrane depolarization in Staphylococcus aureus ATCC 25923 assessed as increase in fluorescence intensity at 4 times MIC measured for 30 mins by DiSC3(5) dye based fluorescence method; format: cell membranes
# Erythrocyte = test: Hemolytic activity in mouse RBC assessed as hemolysis at 62.5 uM incubated for 1 hr; format: toxicity, cell-based
# [19] = Cytotoxicity against human THP-1 cells assessed as reduction in cell viability incubated for 24 hrs by resazurin staining based analysis; format: toxicity
# [20] = Dissociation constant, pKa of compound; format: physicochemical
# Cell membrane [21] = test: Induction of cell membrane permeability in Staphylococcus aureus ATCC 25923 assessed as increase in fluorescence intensity incubated for 30 mins by PI staining based analysis; format: cell membranes
# Staphylococcus aureus [22] = test: Antibacterial activity against Staphylococcus aureus ATCC 25923 assessed as inhibition of bacterial growth at 40 uM incubated for 18 to 24 hrs by broth microdilution assay relative to control; format: functional; conditions: time 18-24 hrs
# Staphylococcus aureus [23] = test: Antibiofilm activity against Staphylococcus aureus ATCC 25923 assessed as reduction in biofilm biomass at 100 uM incubated for 18 to 20 hrs by crystal violet staining based assay; format: functional; design: scale not given: the % may be the effect or the level left; conditions: time 18-20 hrs
SMILES,MIC (Enterococcus faecalis [1]) [µM],MIC (Staphylococcus aureus [2]) [µM],MIC (Enterococcus faecium) [µM],MIC [3] [µM],MIC [6] [µM],MIC (Enterococcus faecalis [7]) [µM],inhibition at 100 µM (Staphylococcus aureus [8]) [%],MIC (Staphylococcus aureus [10]),inhibition at 100 µM (Staphylococcus aureus [11]) [%],MIC (Staphylococcus aureus [12]) [µM],MIC (Pseudomonas aeruginosa) [µM],MIC (Acinetobacter baumannii) [µM],inhibition at 40 µM (Staphylococcus aureus [22]) [%],also measured
O=C(O)c1cn(C2CC2)c2cc(N3CCNCC3)c(F)cc2c1=O [CIPROFLOXACIN],2.5,2.5,40,0.625,1.25,2.5,–,–,–,–,–,–,–,Ratio (Staphylococcus aureus [4]): 170; Ratio (Staphylococcus aureus [5]): 80
CN[C@H](CC(C)C)C(=O)N[C@H]1C(=O)N[C@@H](CC(N)=O)C(=O)N[C@H]2C(=O)N[C@H]3C(=O)N[C@H](C(=O)N[C@H](C(=O)O)c4cc(O)cc(O)c4-c4cc3ccc4O)[C@H](O)c3ccc(c(Cl)c3)Oc3cc2cc(c3O[C@@H]2O[C@H](CO)[C@@H](O)[C@H](O)[C@H]2O[C@H]2C[C@](C)(N)[C@H](O)[C@H](C)O2)Oc2ccc(cc2Cl)[C@H]1O [VANCOMYCIN],2.5,1.25,40,2.5,2.5,40,50,2.5 µM and 3.6 µg/mL,25,1.25,–,–,–,Activity (Staphylococcus aureus [9]): 61%; Activity (Cell membrane [13]): inactive; Activity (Staphylococcus aureus [14]): 72%
O=C(O)C[C@H]1CCc2c1[nH]c1ccc(OCc3ccc(C4CCCC4)c(C(F)(F)F)c3)cc21 [ETRASIMOD],5,5,5,10,5,10,80,5 µM and 2.3 µg/mL,20,5,> 200,> 200,–,"Activity (THP-1): 64%; hemolysis at 1 h, 250 µM [15]: 100%; hemolysis at 1 h, 125 µM [16]: 7%; Activity (Staphylococcus aureus [9]): 77%; Activity [17]: Non-Toxic; Activity (Cell membrane [18]): inactive; Activity (Erythrocyte): Non-Toxic; Activity (Staphylococcus aureus [14]): >85%; CC50 at 24 h [19]: 57.7 µM; pKa [20]: 4"
CC[C@H](C)[C@H](NC(=O)CN)C(=O)NCC(=O)N[C@@H](C)C(=O)N[C@H](C(=O)N[C@@H](CC(C)C)C(=O)N[C@@H](CCCCN)C(=O)N[C@H](C(=O)N[C@@H](CC(C)C)C(=O)N[C@H](C(=O)N[C@H](C(=O)NCC(=O)N[C@@H](CC(C)C)C(=O)N1CCC[C@H]1C(=O)N[C@@H](C)C(=O)N[C@@H](CC(C)C)C(=O)N[C@H](C(=O)N[C@@H](CO)C(=O)N[C@@H](Cc1c[nH]c2ccccc12)C(=O)N[C@H](C(=O)N[C@@H](CCCCN)C(=O)N[C@@H](CCCNC(=N)N)C(=O)N[C@@H](CCCCN)C(=O)N[C@@H](CCCNC(=N)N)C(=O)N[C@@H](CCC(N)=O)C(=O)N[C@@H](CCC(N)=O)C(N)=O)[C@@H](C)CC)[C@@H](C)CC)[C@@H](C)O)[C@@H](C)O)C(C)C)C(C)C,–,–,–,–,–,–,–,–,–,–,–,–,–,Activity (Cell membrane [21]): Active
O=C(O)Cc1c[nH]c2ccc(OCc3ccc(C4CCCCC4)c(C(F)(F)F)c3)cc12,20,10,20,10,10,20,> 90,10 µM and 4.3 µg/mL,> 90,10,> 200,> 200,≤ 90,–
O=C(O)CC1CCc2c1[nH]c1ccc(OCc3cnc(C4CCCC4)c(C(F)(F)F)c3)cc21 (stereo not drawn),–,–,–,–,–,–,> 90,20 µM and 9.2 µg/mL,> 90,–,–,–,≤ 90,Activity (Staphylococcus aureus [23]): 50%
O=C(O)CC1CCc2c1[nH]c1ccc(OCc3ccc(C4CCCCC4)c(OC(F)(F)F)c3)cc21 (stereo not drawn),5,5,5,10,10,5,> 90,5 µM and 2.4 µg/mL,> 90,5,> 200,> 200,≤ 90,–
O=C(O)CC1CCCc2c1[nH]c1ccc(OCc3ccc(C4CCCC4)c(C(F)(F)F)c3)cc21 (stereo not drawn),5,5,5,10,5,10,> 90,5 µM and 2.4 µg/mL,> 90,5,> 200,> 200,≤ 90,–

# Reference: ChEMBL document CHEMBL5532643, “Design and synthesis of etrasimod derivatives as potent antibacterial agents against Gram-positive bacteria” (Eur J Med Chem, 2024)
